Measurements from ChEMBL document CHEMBL1137360, “Structure-activity relationships of a novel series of urotensin II analogues: identification of a urotensin II antagonist” (J Med Chem, 2006).
Calls of active or inactive are those of the source. No cut-off for these calls is given here. Positions of bridges follow the written chain, without caps; N, C: chain ends. Non-standard residues stand in square brackets, D forms with d. Residues, ends and D or L forms follow the SMILES beside them. Phe(4-COOH) = N[C@@H](Cc1ccc(C(=O)O)cc1)C(=O)O

Assays:
Urotensin-2 receptor [1] = target: T1, Urotensin-2 receptor (Homo sapiens, UniProt Q9UKP6); assay: Displacement of [125I]human urotensin-2 from human GPR14 transfected in CHO cells; type: cell-based
T1 sequence (Q9UKP6 whole entry): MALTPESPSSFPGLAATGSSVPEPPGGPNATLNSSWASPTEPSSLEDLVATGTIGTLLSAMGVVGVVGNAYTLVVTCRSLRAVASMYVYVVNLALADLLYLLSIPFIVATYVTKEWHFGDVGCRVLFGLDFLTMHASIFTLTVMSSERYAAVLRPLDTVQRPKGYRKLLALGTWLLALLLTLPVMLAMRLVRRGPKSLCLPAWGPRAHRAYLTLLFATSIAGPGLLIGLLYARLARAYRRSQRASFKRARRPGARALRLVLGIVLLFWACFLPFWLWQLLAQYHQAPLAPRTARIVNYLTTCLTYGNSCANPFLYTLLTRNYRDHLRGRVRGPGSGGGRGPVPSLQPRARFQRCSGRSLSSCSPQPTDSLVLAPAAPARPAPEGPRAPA

Rattus norvegicus [2] = species: Rattus norvegicus; assay: Agonist activity in rat aortic ring contraction assay; type: functional; conditions: Aorta
Rattus norvegicus [3] = species: Rattus norvegicus; assay: Agonist activity in rat aortic ring contraction assay relative to 0.1 uM phenylephrine; type: functional, Aorta
[4] = target: T2, Urotensin-2 receptor (Rattus norvegicus) (UniProt P49684); assay: Antagonist activity against 1 uM human urotensin-2-induced contraction of rat aortic ring; type: functional, tissue-based; conditions: Aorta
T2 sequence (whole entry): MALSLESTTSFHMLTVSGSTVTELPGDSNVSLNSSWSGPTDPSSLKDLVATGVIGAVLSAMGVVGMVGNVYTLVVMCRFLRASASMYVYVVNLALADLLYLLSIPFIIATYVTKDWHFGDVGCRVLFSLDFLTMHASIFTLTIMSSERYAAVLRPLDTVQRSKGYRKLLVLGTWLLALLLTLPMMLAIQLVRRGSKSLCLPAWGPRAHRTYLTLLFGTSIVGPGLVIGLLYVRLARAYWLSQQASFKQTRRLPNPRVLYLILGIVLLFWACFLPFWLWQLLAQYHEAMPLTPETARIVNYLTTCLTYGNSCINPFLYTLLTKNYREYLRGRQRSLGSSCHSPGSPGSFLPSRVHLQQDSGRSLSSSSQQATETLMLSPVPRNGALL

Rattus norvegicus [5] = species: Rattus norvegicus; assay: Agonist activity in rat aortic ring contraction assay relative to 1 uM phenylephrine; type: functional, Aorta
[6] = target: T2, Urotensin-2 receptor (Rattus norvegicus); assay: Antagonist activity against 0.1 uM human urotensin-2-induced contraction of rat aortic ring; type: functional, tissue-based; set-up: scale not given: the % may be the effect or the level left; conditions: Aorta
Urotensin-2 receptor [7] = target: T3, Urotensin-2 receptor (Rattus norvegicus, UniProt P49684); assay: Antagonist potency against human urotensin-2-induced contraction of rat aortic ring; type: functional, tissue-based, Aorta; conditions: read-out: pA2 (converted)
T3 sequence (P49684 whole entry): T2 sequence (whole entry)

Ki (Urotensin-2 receptor [1]) [nM] | EC50 (Rattus norvegicus [2]) [nM] | Activity [4] | Activity [6] [%] | Kb (Urotensin-2 receptor [7]) [nM] | SMILES | Activity (Rattus norvegicus [3]) [%] | Activity (Rattus norvegicus [5]) [%] | Activity (Rattus norvegicus [5]; Aorta)
132 | > 10000 | inactive | – | – | CC(C)C[C@@H]1NC(=O)[C@@H](NC(=O)[C@@H](N)CC(=O)O)CSSC[C@@H](C(=O)N[C@H](C(=O)O)C(C)C)NC(=O)[C@H](Cc2ccc(O)cc2)NC(=O)[C@H](CCCCN)NC(=O)[C@H](Cc2c[nH]c3ccccc23)NC1=O (H-DCLWKYCV-OH; disulfide 2-7) | 38.7 | – | –
74.1 | 1700 | inactive | – | – | CC(C)[C@H](NC(=O)[C@@H]1CSSC[C@H](NC(=O)[C@@H](N)CC(=O)O)C(=O)N[C@@H](Cc2ccccc2)C(=O)N[C@@H](Cc2c[nH]c3ccccc23)C(=O)N[C@@H](CCCCN)C(=O)N[C@@H](Cc2ccc(C(=O)O)cc2)C(=O)N1)C(=O)O (H-DCFWK[Phe(4-COOH)]CV-OH; disulfide 2-7) | – | 79.3 | –
407 | > 10000 | – | 95.7 | 813 | CC(C)[C@H](NC(=O)[C@@H]1CSSC[C@H](NC(=O)[C@@H](N)CC(=O)O)C(=O)N[C@@H](CC2CCCCC2)C(=O)N[C@@H](Cc2c[nH]c3ccccc23)C(=O)N[C@@H](CCCCN)C(=O)N[C@@H](Cc2ccc(O)cc2)C(=O)N1)C(=O)O | – | – | inactive
> 10000 | > 10000 | inactive | – | – | CC(C)[C@H](NC(=O)[C@@H]1CSSC[C@H](NC(=O)[C@@H](N)CC(=O)O)C(=O)N[C@H](CC2CCCCC2)C(=O)N[C@@H](Cc2c[nH]c3ccccc23)C(=O)N[C@@H](CCCCN)C(=O)N[C@@H](Cc2ccc(O)cc2)C(=O)N1)C(=O)O | – | – | inactive
